Data reported in paper PMC10319809, “Chronic UCN2 treatment desensitizes CRHR2 and improves insulin sensitivity” (Nature Communications, 2023).
Where “and” joins values, the source holds several entries; their conditions need not be identical. Identical values can stand only once. Where no end group is shown, it is not given here.

Key:
[1] = test system: mouse soleus muscle; assay: Ex vivo soleus muscle [3H]2-deoxyglucose uptake
Description: Soleus muscle was removed from fed animals anesthetized by an intraperitoneal injection of pentobarbital (10 mg/100 g body weight). Dissected soleus muscles were suspended at 5 mN of tension in incubation chambers (Model 610/820 M, Danish Myo-Technology, Denmark) containing Krebs-Ringer-Buffer supplemented with 0.1% BSA, 2 mM pyruvate and 8 mM Mannitol. During the entire incubation period the KRB was maintained at 30 °C and oxygenated with 95% O2 and 5% CO2. Following 10 min of pre-incubation muscles were incubated in Krebs buffer +/− 100 nM (−7.0 log[M]) UCN2. At the next time point, 30 min later, muscles were placed in baths containing Krebs buffer +/− 100 nM (−7.0 [M]) UCN2. At the next time point, 15 min later, muscles were placed in baths containing Krebs buffer +/− 100 nM (−7.0 log[M]) UCN2 + /− 60 nM Insulin (Actrapid, Novo Nordisk, Bagsvaerd, Denmark) for 15 min. For the ex vivo glucose uptake studies, 1 mM [^3H]2-deoxyglucose (Perkin-Elmer) and 7 mM [^14C]mannitol (Perkin-Elmer) was also added at this time. Muscles that were in saline in the first bath, saline in the second bath, and saline in the third bath were assigned to the SSS group. Muscles that were in saline in the first bath, saline in the second bath, and UCN2 in the third bath were assigned to the SSU group. Muscles that were in UCN2 in the first bath, saline in the second bath, and UCN2 in the third bath were assigned to the USU group. Muscles that were in saline in the first bath, UCN2 in the second bath, and UCN2 in the third bath were assigned to the SUU group. Following incubation, muscles were harvested, washed in ice-cold KRB and immediately frozen in liquid nitrogen.
Glucose uptake was determined in muscle protein lysates by assessing the accumulation of [^3H]2-deoxyglucose with the use of [^14C]mannitol to correct for the extracellular space. Radioactivity was measured by liquid scintillation counting.

[2] = test system: heart, white adipose tissue; assay: In vivo glucose uptake, fluoro-deoxyglucose (FDG), heart and subcutaneous white adipose tissue; design: species or system mouse; conditions: for Glucose Uptake Rate, subcutaneous white adipose tissue (FDG): individual animals (Fig. 2H), 1 mg/kg
Description: Mice were fasted 5 h, dosed IP with 1 mg/kg UCN2 or vehicle. 20 min after dosing mice were injected with 2 mg/kg fluoro-deoxyglucose (FDG) +/− 0.75 IU insulin via tail vein. 15 min after the FDG dose animals were anesthetized and tissues and blood were collected and snap frozen. Plasma and tissues were analyzed for FDG, FDG-monophosphate, glucose, and glucose-monophosphate. The quantification of the analytes was performed by liquid chromatography tandem mass spectrometry (LC-MS/MS) using selected reaction monitoring (SRM) on an Applied Biosystems SCIEX (Framingham, MA, USA) 5500 QTrap mass spectrometer operated in negative ionization mode. Chromatography was achieved on a Shimadzu (Kyoto, Japan) HPLC system under reversed phase LC conditions with gradient elution. Calibration standards were prepared in analyte-free matrix, while quality control samples were prepared in pooled tissue homogenate by standard addition. Experimental tissue samples were mechanically homogenized in a methanol solution followed by evaporation under nitrogen and resuspension with injection solvent prior to analysis on the LC-MS/MS system.

IVLSLDVPIGLLQILLEQARARAAREQATTNARILARVGHC-NH2 (C-terminus assumed) [UCN2, Urocortin 2]
2DG Uptake ([1]; Fig 6C, UCN2 without insulin, individual muscles): 0.55 µmol/g/h and 1.85 µmol/g/h and 0.61 µmol/g/h and 0.24 µmol/g/h and 0.63 µmol/g/h
insulin-mediated glucose uptake, acute treatment ex vivo ([1]; soleus muscle, 100 nM UCN2, 60 nM insulin): sufficient to blunt insulin-mediated glucose uptake
insulin-mediated glucose uptake after UCN2 pre-treatment ex vivo ([1]; soleus muscle, 100 nM UCN2 pre-treatment (SUU, USU) versus acute (SSU)): increased insulin-mediated glucose uptake relative to acute UCN2 treatment
insulin-stimulated glucose uptake in heart, WAT and SKM in vivo ([2]; 1 mg/kg IP UCN2, SKM by [3H]2DG): decreased insulin-stimulated glucose uptake
Glucose Uptake Rate, subcutaneous white adipose tissue (FDG) ([2]; UCN2 1 mg/kg IP +Insulin 0.75 IU): 0.1568 ng/g tissue/min and 0.1229 ng/g tissue/min and 0.1122 ng/g tissue/min and 0.1603 ng/g tissue/min and 0.108 ng/g tissue/min and 0.2201 ng/g tissue/min and 0.1273 ng/g tissue/min and 0.0896 ng/g tissue/min
Glucose Uptake Rate, subcutaneous white adipose tissue (FDG) ([2]; UCN2 1 mg/kg IP +Veh (no insulin)): 0.0619 ng/g tissue/min and 0.036 ng/g tissue/min and 0.07045 ng/g tissue/min and 0.06392 ng/g tissue/min and 0.06486 ng/g tissue/min and 0.04044 ng/g tissue/min and 0.02401 ng/g tissue/min and 0.1458 ng/g tissue/min
